In patent US20260365696A1, “INHIBITORS OF PTP1B / NCK1 INTERACTION AND METHODS OF MAKING AND USING SAME” (Radella Pharmaceuticals LLC, priority 2023, published 2026):

These substances were tested against T1, SH3-2 domain of NCK1 (Homo sapiens, UniProt P16333) (assay: Isothermal titration calorimetry (ITC) binding to NCK1 SH3-2 domain). Conditions: ITC.
T1 construct: To amplify the NCK1 SH3-2 domain, the primers; 10xHis tag with TEV site (vector pSF-OXB20-NH2-10HIS) (N, cleaved yes); made in house; host or cells: E. coli C43(DE3)
Description: Human PTP1B cDNA (NM_002827) and human NCK1 cDNA (NM 006153) were obtained (Origene, MD, USA). PTP1B Primers were designed to amplify the ORFs with added homology to the cut vector (EcoRI-digested pSF-OXB20-NH2-10HIS) in the forward primer sequence. To amplify full-length PTP1B, the primers ptp1b_FL_fwd ([…]) (SEQ ID NO: 159) and ptp1b_FL_rev ([…]) (SEQ ID NO: 160) were used. To amplify truncations of PTP1B, the following primer pairs were used: ptp1b_FL-Fwd and one of Ptplb_323stop_rev (gtgcaggaggagttcgaatt[…]) (SEQ ID NO: 161), ptp1b_344stop_rev ([…]) (SEQ ID NO: 162) or ptp1b_278stop_rev([…]) (SEQ ID NO: 163). To amplify the NCK1 SH3-2 domain, the primers ncklsh32_fwd ([…]) (SEQ ID NO: 164) and ncklsh32_rev ([…]) (SEQ ID NO: 165) were used. The amplified fragments were purified using a DNA clean-up kit according to manufacturer's instructions (QIAquick PCR purification kit, Qiagen).
To produce and purify fusion proteins, a culture was inoculated with 1% of overnight-cultured inoculum. Protein expression was carried out under the conditions described above, scaled up as necessary. Cells expressing the recombinant proteins were harvested in 50 mL tubes by centrifugation and stored at −80 °C. Cells containing the expressed gene product were thawed over ice and resuspended in Extraction buffer (10 mM Tris, pH 7.4 or 10 mM Sodium Phosphate, pH 8.0; 300 mM NaCl, 1 mM DTT or TCEP; 0-10% glycerol and 1 μg lysozyme) and sonicated over ice (4 °C) for 3 min total using pulses of 5 s with 15 s intervals, using a wide probe at 15 amplitude microns (Soniprep 150, MSE). Insoluble material was removed from the lysate by centrifugation at 20K rpm for 20-60 min at 4 °C. Supernatant was filtered through a 0.22 μm PVDF filter membrane and applied to 1-2 5 mL HisTrap FF Crude (Cytiva) prepacked Ni columns and connected to an AKTA explorer. After thorough washing with binding buffer (10 mM Tris, pH 7.4 or 10 mM Sodium Phosphate, pH 8.0; 300 mM NaCl; 1 mM DTT or TCEP and 25 mM Imidazole), protein was eluted using elution buffer (10 mM Tris, pH 7.4 or 10 mM Sodium Phosphate, pH 8.0; 150-300 mM NaCl; 1 mM DTT or TCEP and 250 mM Imidazole). Fractions containing protein of interest were confirmed by SDS PAGE. Protein was diluted with GF buffer (10 mM Tris, pH 7.4 or 10 mM Sodium Phosphate, pH 8.0; 150-300 mM NaCl) and subjected to TEV protease treatment overnight at 4-10 °C. Following proteolytic digestion, HIS-tag and TEV protease were removed by filtration through a clean 5 mL HisTrap FF Crude (Cytiva) prepacked Ni column. Protein was concentrated on a PES ultrafiltration device by centrifugation at 4000 rpm at 4 °C, and protein was polished via a HiPrep S-100 26/60 (Cytiva) using GF buffer (as described above). Purified proteins were concentrated using ultrafiltration, and protein concentration was determined using ultraviolet-visible spectroscopy. The integrity and identity of all proteins were verified by mass spectrographic analysis.
Isothermal titration calorimetry (ITC) was used to determine binding affinities for peptides against the SH3-2 domain of NCK1. Experiments were conducted at 25 °C using either a MicroCal iTC200 or MicroCal PEAQ-ITC calorimeter. The buffer used for all ITC experiments was 10 mM sodium [COMPOUND LEFT OUT] mM sodium chloride (pH=8.0). A series of peptides (concentration 3-7.5 mM) were titrated in to NCK1 SH3-2 domain (concentration 0.125-0.3 mM) using the following conditions: one injection of 0.2 μL followed by 19 injections of 2 μL, 120-150 seconds spacing between injections, at 25 °C. The data were fit using analysis software provided by the manufacturer and affinity values were calculated. The best fitting occurred when the number of sites was between 0.8 and 1.2. The experiments were repeated twice for a total of three times, and the average binding affinity for each peptide was generated. […]
Ac-PPPRPPK-NH2 [MH041, Ac-PPPRPPK-NH2] was tested, and the “binding to NCK1 SH3-2 domain (in words)” value was “abolished binding”.
In the case of Ac-PPRPPK-NH2 [MH035, Ac-PPRPPK-NH2], the “binding to NCK1 SH3-2 domain (in words)” value is reported as “abolished binding”.

Same assay, conditions: Modified MD18/MD20 peptides; ITC, 25 °C, pH 8.0
For Ac-PPRPPKK-NH2 [MH076, Ac-PPRPPKK-NH2], the Kd was > 1000 µM.

Same assay, conditions: N- or C-terminal extensions; ITC, 25 °C, pH 8.0; 30-mers tested one to three times
In the case of Ac-PPRPPKRI-NH2 [MH063], the Kd is reported as ≤ 300 µM.
In the case of Ac-PPRPPKRIL-NH2 [MH064], the Kd is reported as ≤ 300 µM.
With Ac-PPRPPKRILE-NH2 [MH065] the Kd was ≤ 300 µM.

Same assay, conditions: Peptide truncation analysis; ITC, 25 °C, pH 8.0
In the case of Ac-PPPPRPPKR-NH2 [MH025], the Kd is reported as ≤ 300 µM.
For Ac-PPPRPPKR-NH2 [MH024], the Kd was ≤ 300 µM.

Same assay, conditions: Sliding window peptide analysis; ITC, 25 °C, pH 8.0
Ac-PPPRPP-NH2 [MH036, Ac-PPPRPP-NH2] was tested, and the Kd was > 1000 µM.
Ac-PPPRPPK-NH2 [MH041, Ac-PPPRPPK-NH2] was tested, and the Kd was > 1000 µM.
In the case of Ac-PPRPPK-NH2 [MH035, Ac-PPRPPK-NH2], the Kd is reported as > 1000 µM.

Same assay, conditions: substitutions at position 3 of MD18; ITC, 25 °C, pH 8.0
Ac-PPQPPKR-NH2 [MH087, Ac-PPQPPKR-NH2] was tested, and the Kd was ≤ 300 µM.

Same assay, conditions: substitutions at position 4 of MD18 in a 7-mer; ITC, 25 °C, pH 8.0
With Ac-PPRCPKR-NH2 [MH129, Ac-PPRCPKR-NH2] the Kd was > 1000 µM.
With Ac-PPRDPKR-NH2 [MH128, Ac-PPRDPKR-NH2] the Kd was > 1000 µM.
For Ac-PPREPKR-NH2 [MH130, Ac-PPREPKR-NH2], the Kd was > 1000 µM.
Ac-PPRFPKR-NH2 [MH067, Ac-PPRFPKR-NH2] was tested, and the Kd was 600 to 1000 µM.
Ac-PPRGPKR-NH2 [MH093, Ac-PPRGPKR-NH2] was tested, and the Kd was > 1000 µM.
With Ac-PPRHPKR-NH2 [MH132, Ac-PPRHPKR-NH2] the Kd was > 1000 µM.
For Ac-PPRIPKR-NH2 [MH097, Ac-PPRIPKR-NH2], the Kd was ≤ 300 µM.
Ac-PPRKPKR-NH2 [MH104, Ac-PPRKPKR-NH2] showed a Kd of 300 to 600 µM.
In the case of Ac-PPRLPKR-NH2 [MH101, Ac-PPRLPKR-NH2], the Kd is reported as 300 to 600 µM.
In the case of Ac-PPRMPKR-NH2 [MH111, Ac-PPRMPKR-NH2], the Kd is reported as > 1000 µM.
In the case of Ac-PPRNPKR-NH2 [MH127, Ac-PPRNPKR-NH2], the Kd is reported as > 1000 µM.

Same assay, conditions: substitutions at position 6 of MD18; ITC, 25 °C, pH 8.0
Ac-PPRPPCR-NH2 [MH054, Ac-PPRPPCR-NH2] was tested, and the Kd was ≤ 300 µM.
Ac-PPRPPDR-NH2 [MH085, Ac-PPRPPDR-NH2] gave a Kd of 300 to 600 µM.
For Ac-PPRPPER-NH2 [MH051, Ac-PPRPPER-NH2], the Kd was ≤ 300 µM.
Ac-PPRPPFR-NH2 [MH105, Ac-PPRPPFR-NH2] showed a Kd of 300 to 600 µM.
Ac-PPRPPGR-NH2 [MH094, Ac-PPRPPGR-NH2] was tested, and the Kd was 600 to 1000 µM.
With Ac-PPRPPHR-NH2 [MH049, Ac-PPRPPHR-NH2] the Kd was ≤ 300 µM.
For Ac-PPRPPIR-NH2 [MH098, Ac-PPRPPIR-NH2], the Kd was ≤ 300 µM.
Ac-PPRPPLR-NH2 [MH102, Ac-PPRPPLR-NH2] was tested, and the Kd was ≤ 300 µM.
Ac-PPRPPMR-NH2 [MH112, Ac-PPRPPMR-NH2] was tested, and the Kd was ≤ 300 µM.
Ac-PPRPPNR-NH2 [MH053, Ac-PPRPPNR-NH2] was tested, and the Kd was ≤ 300 µM.
Ac-PPRPPPR-NH2 [MH107, Ac-PPRPPPR-NH2] was tested, and the Kd was ≤ 300 µM.
In the case of Ac-PPRPPQR-NH2 [MH088, Ac-PPRPPQR-NH2], the Kd is reported as ≤ 300 µM.
With Ac-PPRPPRR-NH2 [MH048, Ac-PPRPPRR-NH2] the Kd was ≤ 300 µM.
For Ac-PPRPPSR-NH2 [MH052, Ac-PPRPPSR-NH2], the Kd was ≤ 300 µM.
With Ac-PPRPPTR-NH2 [MH116, Ac-PPRPPTR-NH2] the Kd was ≤ 300 µM.
Ac-PPRPPVR-NH2 [MH126, Ac-PPRPPVR-NH2] was tested, and the Kd was ≤ 300 µM.
Ac-PPRPPWR-NH2 [MH050, Ac-PPRPPWR-NH2] was tested, and the Kd was ≤ 300 µM.
For Ac-PPRPPYR-NH2 [MH122, Ac-PPRPPYR-NH2], the Kd was ≤ 300 µM.

Same assay, conditions: substitutions at position 8 of the 8-mer MH063; ITC, 25 °C, pH 8.0; certain peptides tested one to three times
With Ac-PPRPPKRA-NH2 [MH138] the Kd was ≤ 300 µM.
Ac-PPRPPKRC-NH2 [MH142] was tested, and the Kd was ≤ 300 µM.
In the case of Ac-PPRPPKRD-NH2 [MH141], the Kd is reported as ≤ 300 µM.
With Ac-PPRPPKRF-NH2 [MH150] the Kd was ≤ 300 µM.
For Ac-PPRPPKRG-NH2 [MH145], the Kd was ≤ 300 µM.
In the case of Ac-PPRPPKRH-NH2 [MH146], the Kd is reported as ≤ 300 µM.
For Ac-PPRPPKRI-NH2 [MH063], the Kd was ≤ 300 µM.
With Ac-PPRPPKRK-NH2 [MH148] the Kd was ≤ 300 µM.
With Ac-PPRPPKRL-NH2 [MH147] the Kd was ≤ 300 µM.
In the case of Ac-PPRPPKRM-NH2 [MH149], the Kd is reported as ≤ 300 µM.
For Ac-PPRPPKRN-NH2 [MH140], the Kd was ≤ 300 µM.
In the case of Ac-PPRPPKRP-NH2 [MH151], the Kd is reported as 300 to 600 µM.
In the case of Ac-PPRPPKRR-NH2 [MH139], the Kd is reported as ≤ 300 µM.
In the case of Ac-PPRPPKRS-NH2 [MH152], the Kd is reported as ≤ 300 µM.
For Ac-PPRPPKRW-NH2 [MH154], the Kd was ≤ 300 µM.
In the case of Ac-PPRPPKRY-NH2 [MH155], the Kd is reported as ≤ 300 µM.
